Results reported in patent US20210290648A1, “Potentiation of B-Lactam Antibiotics and B-Lactam/B-Lactamase Inhibitor Combinations Against Multidrug and Extensively Drug-Resistant Pseudomonas Aeruginosa Using Non-Ribosomal Tobramycin-Cyclam Conjugates” (University of Manitoba, priority 2018, published 2021).

Legend:
[1] = tested on: PA 101243; assay: Checkerboard combination study / MIC; assay type: cell-based, Pseudomonas aeruginosa; conditions: PA 101243
[2] = tested on: PA 259; assay: Checkerboard combination study / MIC; assay type: cell-based, Pseudomonas aeruginosa
[3] = tested on: PA 114228; assay: Checkerboard combination study / MIC; assay type: cell-based, Pseudomonas aeruginosa
[4] = tested on: PA 101885; assay: Checkerboard combination study / MIC; assay type: cell-based, Pseudomonas aeruginosa
[5] = tested on: PA 260; assay: Checkerboard combination study / MIC; assay type: cell-based, Pseudomonas aeruginosa
[6] = tested on: PA 262; assay: Checkerboard combination study / MIC; assay type: cell-based, Pseudomonas aeruginosa
[7] = tested on: Galleria mellonella larvae; assay: Galleria mellonella tolerability study; conditions: 100 mg/kg and 200 mg/kg injected alone; after 48 h
Description: In vitro and in vivo discordances have been observed in antimicrobial chemotherapy, thus, therapeutic efficacy may not necessarily be reliably extrapolated based on in vitro data alone. […] Colistin (100 mg/kg), an antibiotic well known for its toxicity towards eukaryotes, served as a positive control for this experiment while PBS served as negative control. […] Survivability was scored for a total of 4 days.
In vivo larvae-infection model. In vivo synergistic effects were determined using Galleria mellonella infection model, as previously described (20). Briefly, worms were purchased from The Worm Lady® Live Feeder (ON, Canada), stored in their natural habitat at 16° C., and used within 10 days of delivery. The worms (average weight of 250 mg) were used for tolerability and efficacy studies. Tolerability study was performed by injecting 10 μL of antimicrobial agents only at concentrations equivalent to 100 mg/kg or 200 mg/kg. The worms (ten in each group) were incubated at 37° C. and monitored for 96 h. […] Overnight grown culture of respective MDR P. aeruginosa isolate was standardized to 0.5 McFarland standard and diluted in PBS to a final concentration of […]. 10 μL of this solution (5 CFU) was injected into each worm and incubated for 3 h at 37° C. […] Worms treated with 10 μL PBS or high concentrations of test antibiotics served as negative and positive control, respectively. The worms were incubated at 37° C. in Petri dishes lined with filter paper and scored for survivability every 6 h for up to 48 h. This experiment was repeated to give a total of thirty worms (n=30) in each case. Survival data curves were plotted using Kaplan-Meier survival analysis.

[8] = tested on: MDR/XDR P. aeruginosa clinical isolates; assay: MIC and checkerboard, panel of clinical isolates; assay type: cell-based, Pseudomonas aeruginosa; conditions: antibiotic + compound 2 (8.7 μM); resistant P. aeruginosa isolates
[9] = tested on: PAO750; assay type: cell-based, Pseudomonas aeruginosa
Text: (§1) PAO200 is a tnexA-rnexB-oprM deletion strain while PAO750 lacks five important RND pumps (McxAB-OprM, MexCD-OprJ, MexEF-OprN, Mex JK, and MexXY) and the outer membrane protein OpmH (46, 47). Some of these pumps are homologues of broad substrate specificities that extrude different classes of antimicrobial agents and confer resistance on P. aeruginosa (48).
(§2) Antimicrobial Susceptibility Assay. The in vitro antimicrobial activity of all compounds/antibiotics against a panel of bacteria was evaluated by microbroth dilution method in accordance with the Clinical and Laboratory Standards Institute (CLSI) guidelines. Overnight grown bacterial cultures were diluted in saline to achieve a 0.5 McFarland turbidity, followed by 1:50 dilution in Mueller-Hinton broth (MHB) for inoculation to a final concentration of approximately 5×10^5CFU/mL. The antimicrobial agents were 2-fold serially diluted in MHB in a 96-well plate and incubated at 37° C. with equal volumes of inoculum for 18 h. The lowest concentration that prevented the visible growth of bacteria was defined as the MIC for each antimicrobial agent. The broth with or without bacterial cells was used as positive or negative control, respectively.
(§3) Checkerboard Assay. Combination studies with different antibiotics were performed in 96-well plates as previously described (22). Briefly, the antibiotic of interest was serially diluted in MHB along the abscissa while the adjuvant (newly synthesized conjugates) was serially diluted in MHB along the ordinate. This creates a 10×7 matrix wherein each well consists of a combination of different antibiotic and adjuvant concentrations. Overnight grown bacterial cultures were diluted in saline to achieve a 0.5 McFarland turbidity, followed by 1:50 dilution in Mueller-Hinton broth (MHB) for inoculation to a final concentration of approximately 5×10^5CFU/mL. Equal volume of this bacterial culture was then added to each well and incubated at 37° C. for 18 h. After incubation, the plates were read on EMax® Plus microplate reader (Molecular Devices, Sunnyvale, Calif., USA) at 590 nm. MIC was recorded as wells with the lowest concentration of drugs with no bacterial growth. The fractional inhibitory concentration (FIC) for each antibiotic was calculated by dividing the MIC of the antibiotic in the presence of adjuvant by the MIC of the antibiotic alone. Similarly, the FIC of adjuvant was calculated by dividing the MIC of the adjuvant in the presence of antibiotic by the MIC of the adjuvant alone. FIC index is the sum of both FICs. FIC indices of <0.5 were deemed synergistic; 0.5-4, no interaction; and >4, antagonistic.

[10] = tested on: PAO200; assay type: cell-based, Pseudomonas aeruginosa
Text: as §1, §2, §3

[11] = MIC of antibiotic combined with compound 2

In the case of “5-O-(Octylcyclam)-tobramycin.9TFA [Compound 2]”, the “MICCombination (2)” value ([1]; MIC of 2 combined with AZT) was 2 µg/mL, the “MICCombination (2)” value ([1]; MIC of 2 combined with CAZ) was 1 µg/mL and the “MICCombination (2)” value ([1]; MIC of 2 combined with CEF) was 0.25 µg/mL. For the same compound, the “MICCombination (2)” value ([1]; MIC of 2 combined with DOR) was 0.25 µg/mL, the “MICCombination (2)” value ([1]; MIC of 2 combined with MER) was 0.5 µg/mL and the “MICCombination (2)” value ([1]; MIC of 2 combined with PIP) was 16 µg/mL. The FIC2 ([1]; with AZT) was under 0.0078, the FIC2 ([1]; with CAZ) was under 0.0039 and the FIC2 ([1]; with CEF) was under 0.0010. It also gave an FIC2 ([1]; with DOR) of under 0.0010, an FIC2 ([1]; with MER) of under 0.0020 and an FIC2 ([1]; with PIP) of under 0.0625. The “MICCombination (2)” value ([2]; MIC of 2 combined with AZT) was 16 µg/mL, the “MICCombination (2)” value ([2]; MIC of 2 combined with CAZ) was 16 µg/mL and the “MICCombination (2)” value ([2]; MIC of 2 combined with CEF) was 16 µg/mL. For the same compound, the “MICCombination (2)” value ([2]; MIC of 2 combined with MER) was 16 µg/mL, the “MICCombination (2)” value ([2]; MIC of 2 combined with PIP) was 1 µg/mL and the FIC2 ([2]; with AZT) was under 0.0625. The FIC2 ([2]; with CAZ) was under 0.0625, the FIC2 ([2]; with CEF) was under 0.0625 and the FIC2 ([2]; with MER) was under 0.0625. For the same compound, the FIC2 ([2]; with PIP) was under 0.0039, the “MICCombination (2)” value ([3]; MIC of 2 combined with AZT) was 4 µg/mL and the “MICCombination (2)” value ([3]; MIC of 2 combined with CAZ) was 16 µg/mL. For the same compound, the “MICCombination (2)” value ([3]; MIC of 2 combined with CEF) was 4 µg/mL, the “MICCombination (2)” value ([3]; MIC of 2 combined with DOR) was 4 µg/mL and the “MICCombination (2)” value ([3]; MIC of 2 combined with MER) was 8 µg/mL. The “MICCombination (2)” value ([3]; MIC of 2 combined with PIP) was 0.5 µg/mL, the FIC2 ([3]; with AZT) was under 0.0156 and the FIC2 ([3]; with CAZ) was under 0.0625. For the same compound, the FIC2 ([3]; with CEF) was under 0.0156, the FIC2 ([3]; with DOR) was under 0.0156 and the FIC2 ([3]; with MER) was under 0.0313. For the same compound, the FIC2 ([3]; with PIP) was under 0.0020, the “MICCombination (2)” value ([4]; MIC of 2 combined with AZT) was 16 µg/mL and the “MICCombination (2)” value ([4]; MIC of 2 combined with CAZ) was 8 µg/mL. For the same compound, the “MICCombination (2)” value ([4]; MIC of 2 combined with CEF) was 16 µg/mL, the “MICCombination (2)” value ([4]; MIC of 2 combined with DOR) was 4 µg/mL and the “MICCombination (2)” value ([4]; MIC of 2 combined with MER) was 8 µg/mL. For the same compound, the “MICCombination (2)” value ([4]; MIC of 2 combined with PIP) was 16 µg/mL, the FIC2 ([4]; with AZT) was under 0.0625 and the FIC2 ([4]; with CAZ) was under 0.0313. It also gave an FIC2 ([4]; with CEF) of under 0.0625, an FIC2 ([4]; with DOR) of under 0.0156 and an FIC2 ([4]; with MER) of under 0.0313. For the same compound, the FIC2 ([4]; with PIP) was under 0.0625, the “MICCombination (2)” value ([5]; MIC of 2 combined with AZT) was 16 µg/mL and the “MICCombination (2)” value ([5]; MIC of 2 combined with CAZ) was 4 µg/mL. The “MICCombination (2)” value ([5]; MIC of 2 combined with CEF) was 8 µg/mL, the “MICCombination (2)” value ([5]; MIC of 2 combined with DOR) was 8 µg/mL and the “MICCombination (2)” value ([5]; MIC of 2 combined with MER) was 8 µg/mL. For the same compound, the “MICCombination (2)” value ([5]; MIC of 2 combined with PIP) was 16 µg/mL, the FIC2 ([5]; with AZT) was under 0.0625 and the FIC2 ([5]; with CAZ) was under 0.0156. The FIC2 ([5]; with CEF) was under 0.0313, the FIC2 ([5]; with DOR) was under 0.0313 and the FIC2 ([5]; with MER) was under 0.0313. The FIC2 ([5]; with PIP) was under 0.0625, the “MICCombination (2)” value ([6]; MIC of 2 combined with AZT) was 8 µg/mL and the “MICCombination (2)” value ([6]; MIC of 2 combined with CAZ) was 16 µg/mL. The “MICCombination (2)” value ([6]; MIC of 2 combined with CEF) was 16 µg/mL, the “MICCombination (2)” value ([6]; MIC of 2 combined with DOR) was 16 µg/mL and the “MICCombination (2)” value ([6]; MIC of 2 combined with MER) was 16 µg/mL. The “MICCombination (2)” value ([6]; MIC of 2 combined with PIP) was 4 µg/mL, the FIC2 ([6]; with AZT) was under 0.0313 and the FIC2 ([6]; with CAZ) was under 0.0625. For the same compound, the FIC2 ([6]; with CEF) was under 0.0625, the FIC2 ([6]; with DOR) was under 0.0625 and the FIC2 ([6]; with MER) was under 0.0625. It also gave an FIC2 ([6]; with PIP) of under 0.0156 and a survival of larvae [7] of 100%.
For `C[C@H]1[C@H](NC(=O)/C(=N\OC(C)(C)C(=O)O)c2csc(N)n2)C(=O)N1S(=O)(=O)O` [Aztreonam], the “MICCombination (antibiotic)” value [1, 11] was 8 µg/mL, the FICI ([1]; antibiotic + compound 2) was under 0.26 and the MICAntibiotic ([1]; antibiotic alone) was 32 µg/mL. For the same compound, the FICAntibiotic ([1]; with compound 2) was 0.250, the “MICCombination (antibiotic)” value [2, 11] was 4 µg/mL and the FICI ([2]; antibiotic + compound 2) was under 0.19. The MICAntibiotic ([2]; antibiotic alone) was 32 µg/mL, the “resistant isolates reaching CLSI clinical breakpoint” value [8] was “seven out of nine” and the “MICCombination (antibiotic)” value [4, 11] was 0.5 µg/mL. It also gave an FICI ([4]; antibiotic + compound 2) of under 0.09, an MICAntibiotic ([4]; antibiotic alone) of 16 µg/mL and an FICAntibiotic ([4]; with compound 2) of 0.031. For the same compound, the “MIC of antibiotic + Compound 2 in PAO750” value ([9]; + compound 2 ≤8.7 μM, PAO750) was 0.031 µg/mL, the “MIC of antibiotic alone in PAO750” value ([9]; antibiotic alone, PAO750 efflux-deficient) was 0.5 µg/mL and the “MIC of antibiotic + Compound 2 in PAO200” value ([10]; + compound 2 ≤8.7 μM, PAO200) was 0.016 µg/mL. For the same compound, the “MIC of antibiotic alone in PAO200” value ([10]; antibiotic alone, PAO200 efflux-deficient) was 0.25 µg/mL, the “MICCombination (antibiotic)” value [5, 11] was 8 µg/mL and the FICI ([5]; antibiotic + compound 2) was under 0.19. For the same compound, the MICAntibiotic ([5]; antibiotic alone) was 64 µg/mL and the survival of larvae [7] was 100%.
